Columns and labels:
[1] = Antiproliferative activity against human Molt4/C8 cells assessed as cell survival after 72 hrs by coulter counter analysis; type: functional, cell-based; conditions: MOLT-4, 72 h
[2] = Cytotoxicity against HGF assessed as cell death after 48 hrs by MTT assay; conditions: human, HGF cells
HSC-4 = assay: Selectivity index, ratio of CC50 for HGF to CC50 for human HSC4 cells; conditions: pooled result: one value given for 3 cell lines, strains, targets or settings
HSC-3 = assay: Selectivity index, ratio of CC50 for HGF to CC50 for human HSC3 cells; conditions: pooled result: one value given for 3 cell lines, strains, targets or settings
HL-60 = assay: Selectivity index, ratio of CC50 for HGF to CC50 for human HL60 cells; conditions: pooled result: one value given for 3 cell lines, strains, targets or settings
L1210 = assay: Antiproliferative activity against mouse L1210 cells assessed as cell survival after 48 hrs by coulter counter analysis; type: functional, cell-based; conditions: L1210, 48 h
CCRF-CEM [3] = assay: Antiproliferative activity against human CEM cells assessed as cell survival after 72 hrs by coulter counter analysis; type: functional, cell-based
[4] = Potency index, ratio of melphalan IC50 to compound IC50 for antiproliferative activity against human Molt4/C8 cells; type: functional, MOLT-4
[5] = Cytotoxicity against human HSC2 cells assessed as cell death after 48 hrs by MTT assay; type: functional; conditions: HSC-2, 48 h
HSC-2 = assay: Selectivity index, ratio of CC50 for HGF to CC50 for human HSC2 cells; conditions: pooled result: one value given for 3 cell lines, strains, targets or settings
[6] = Cytotoxicity against human HSC4 cells assessed as cell death after 48 hrs by MTT assay; type: functional; conditions: HSC-4, 48 h
[7] = Cytotoxicity against HPC assessed as cell death after 48 hrs by MTT assay; conditions: human, HPC cells
[8] = Cytotoxicity against human HSC3 cells assessed as cell death after 48 hrs by MTT assay; type: functional; conditions: HSC-3, 48 h
[9] = Cytotoxicity against HPLF assessed as cell death after 48 hrs by MTT assay; conditions: human, HPLF cells
[10] = Cytotoxicity against human HL60 cells assessed as cell death after 48 hrs by MTT assay; type: functional; conditions: HL-60, 48 h
[11] = Cytotoxicity against human SW620 cells after 48 hrs by sulforhodamine B assay; type: functional, cell-based; conditions: SW-620, 48 h
[12] = Cytotoxicity against human COLO205 cells after 48 hrs by sulforhodamine B assay; type: functional, cell-based; conditions: COLO 205, 48 h
[13] = Cytotoxicity against human HCC2998 cells after 48 hrs by sulforhodamine B assay; type: functional, cell-based; conditions: HCC 2998, 48 h
KM12 = assay: Cytotoxicity against human KM12 cells after 48 hrs by sulforhodamine B assay; type: functional, cell-based; conditions: KM12, 48 h
[14] = Cytotoxicity against human HCT116 cells after 48 hrs by sulforhodamine B assay; type: functional, cell-based; conditions: HCT-116, 48 h
[15] = Cytotoxicity against human HCT15 cells after 48 hrs by sulforhodamine B assay; type: functional, cell-based; conditions: HCT-15, 48 h
HT-29 = assay: Cytotoxicity against human HT-29 cells after 48 hrs by sulforhodamine B assay; type: functional, cell-based; conditions: HT-29, 48 h
CCRF-CEM [16] = assay: Potency index, ratio of melphalan IC50 to compound IC50 for antiproliferative activity against human CEM cells; type: functional

Row | Compound | IC50 [1] [µM] | CC50 at 48 h [2] [µM] | Selectivity Index (HSC-4) | Selectivity Index (HSC-3) | Selectivity Index (HL-60) | IC50 (L1210) [µM] | IC50 (CCRF-CEM [3]) [µM] | Ratio IC50 [4] | CC50 [5] [µM] | Selectivity Index (HSC-2) | CC50 [6] [µM] | CC50 at 48 h [7] [µM] | CC50 [8] [µM] | CC50 at 48 h [9] [µM] | CC50 [10] [µM] | also measured
1 | O=C1/C(=C/c2ccc(O)cc2)CCC/C1=C\c1ccc(O)cc1 | 1.06 | > 200 | >3.23 | >4 | >105 | 10.7 | 6.96 | 3.06 | 16 | >12.5 | 62 | > 200 | 50 | > 200 | 1.9 | 
2 | N[C@@H](Cc1ccc(N(CCCl)CCCl)cc1)C(=O)O |  |  | 6.56 | 8.4 | 150 |  |  |  | 8.7 | 24.1 | 32 |  | 25 |  | 1.4 | 
3 | O=C(/C=C/c1ccc(O)cc1)/C=C/c1ccc(O)cc1 | 3.69 | 24 | 3.35 | 3.04 | 4.21 | 7.74 | 3.38 |  | 5.3 | 3.09 | 4.9 | 9.2 | 5.4 | 16 | 3.9 | 
4 | O=c1[nH]cc(F)c(=O)[nH]1 [FLUOROURACIL] |  |  |  |  |  |  |  |  |  |  |  |  |  |  |  | CC50 [11]: > 2510 µM; TGI [11]: > 1860 µM; CC50 [12]: > 2510 µM; TGI [12]: > 1860 µM; CC50 [13]: > 2510 µM; TGI [13]: > 1860 µM; CC50 (KM12): > 2510 µM; TGI (KM12): > 1860 µM; CC50 [14]: > 2510 µM; TGI [14]: > 1860 µM; CC50 [15]: > 2510 µM; TGI [15]: > 1860 µM; CC50 (HT-29): > 2510 µM; TGI (HT-29): > 1860 µM
5 | Cl.Cl.Cl.O=C1/C(=C/c2ccc(O)c(CN3CCOCC3)c2)CNC/C1=C\c1ccc(O)c(CN2CCOCC2)c1 | 1.6 | 3.7 | 3.3 | 3.63 | 5.11 | 7.78 | 1.67 | 2.03 | 0.6 | 6.05 | 1.1 | 3.4 | 1 | 3.8 | 0.71 | Ratio IC50 (CCRF-CEM [16]): 1.48
